Source: US12018033B2, “Inhibitors of protein arginine deiminases” (Forward Therapeutics, Inc., priority 2018, dated 2024)
pIC50: −log10 of the molar value.

Biological target: T1, Recombinant human PAD4 (2-663) (Homo sapiens, UniProt Q9UM07)
T1 construct: Recombinant human PAD4 (2-663) was expressed in E. coli; made in house; host or cells: E. coli
Test: PAD4 Inhibition Assay
Format: biochemical
Conditions: 60 mins pre-incubation at RT; substrate BAEE with CaCl2; fluorescent signal (λex 405/λem 460)
Procedure: Protein: Recombinant human PAD4 (2-663) was expressed in E. coli as an N-terminal Strep-tag and C-terminal 6-his tag fusion protein. Protein was purified using Strep-tactin resin followed by size exclusion chromatography. Tags were not removed during purification. Activity of the protein was determined using ammonia quantification assay.
PAD4 enzyme (10 μL) was diluted to concentration of 75 nM in assay buffer A (100 mM HEPES, pH 8, 50 mM NaCl, 2 mM DTT, 0.6 mg/mL BSA and 0.5% DMSO) and added to wells containing 10 μL of various concentrations of test compound, or DMSO vehicle in buffer A with 1.5% final DMSO concentration in a Corning high volume 384 well black plate. Following 60 mins pre-incubation at RT with gentle shaking, the reaction was initiated by the addition of 10 μL of substrate buffer containing 3 mM N-α-benzoyl-L-arginine ethyl ester (BAEE) and 600 μM CaCl2) in assay buffer A. The reaction was stopped after 60 mins with the addition of 15 μL stop/detection buffer containing 7.5 mM phthalaldehyde, 50 mM EDTA and 7.5 mM DTT in assay buffer A. Quenched reactions were incubated at RT for 45 mins before measuring fluorescent signal (λex 405/λem 460) on an Envision plate reader (Perkin Elmer Life Sciences, Waltham, Mass., USA).

T1 sequence (Q9UM07 2-663): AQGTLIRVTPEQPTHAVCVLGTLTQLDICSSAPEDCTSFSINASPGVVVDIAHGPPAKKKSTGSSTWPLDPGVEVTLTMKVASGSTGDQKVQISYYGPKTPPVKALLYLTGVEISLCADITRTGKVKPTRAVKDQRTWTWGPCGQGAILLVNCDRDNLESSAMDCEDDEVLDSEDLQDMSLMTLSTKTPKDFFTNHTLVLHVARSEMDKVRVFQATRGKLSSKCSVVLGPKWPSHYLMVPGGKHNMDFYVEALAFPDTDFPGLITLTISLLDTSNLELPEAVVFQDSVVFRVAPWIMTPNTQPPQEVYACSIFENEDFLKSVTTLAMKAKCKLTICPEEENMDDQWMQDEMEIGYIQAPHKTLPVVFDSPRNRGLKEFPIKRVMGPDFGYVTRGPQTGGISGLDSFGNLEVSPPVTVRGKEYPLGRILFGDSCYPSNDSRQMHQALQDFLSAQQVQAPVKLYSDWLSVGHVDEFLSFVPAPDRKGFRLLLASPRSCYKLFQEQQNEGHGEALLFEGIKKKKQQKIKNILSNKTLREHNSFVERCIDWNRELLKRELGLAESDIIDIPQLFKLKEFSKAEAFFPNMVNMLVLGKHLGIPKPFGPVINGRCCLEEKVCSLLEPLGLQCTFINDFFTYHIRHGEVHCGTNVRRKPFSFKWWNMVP

| Structure (SMILES) | pIC50 |
| --- | --- |
| C[C@H]1CCNC[C@@H]1NC(=O)c1cc2cc(Cl)c(F)c(F)c2[nH]1 [Example 41, 5-Chloro-6,7-difluoro-N-((3R,4S)-4-methylpiperidin-3-yl)-1H-indole-2-carboxamide] | 4.00 to 5.00 |
| N[C@H]1CN(C(=O)c2cc3cc(Cl)c(F)c(F)c3[nH]2)CC[C@@H]1F [Example 42, ((3S,4S)-3-Amino-4-fluoropiperidin-1-yl)(5-chloro-6,7-difluoro-1H-indol-2-yl)methanone] | 4.00 to 5.00 |
| N[C@H]1CN(C(=O)c2cc3cc(Cl)c(F)c(F)c3[nH]2)CC[C@H]1F [Example 43, ((3S,4R)-3-Amino-4-fluoropiperidin-1-yl)(5-chloro-6,7-difluoro-1H-indol-2-yl)methanone] | < 4.00 |
| N[C@@H]1CCN(C(=O)c2cc3cc(Cl)c(Cl)cc3[nH]2)C1 [Example 44, (R)-(3-Aminopyrrolidin-1-yl)(5,6-dichloro-1H-indol-2-yl)methanone] | 5.00 to 6.00 |
| N[C@@H]1CCN(C(=O)c2cc3cc(Cl)cc(Cl)c3[nH]2)C1 [Example 45, (R)-(3-Aminopyrrolidin-1-yl)(5,7-dichloro-1H-indol-2-yl)methanone] | 4.00 to 5.00 |
| N[C@@H]1CCN(C(=O)c2cc3ccc(Cl)cc3[nH]2)C1 [Example 46, (R)-(3-Aminopyrrolidin-1-yl)(6-chloro-1H-indol-2-yl)methanone] | 5.00 to 6.00 |
| N[C@@H]1CCN(C(=O)c2cc3cc(Cl)cc(Br)c3[nH]2)C1 [Example 47, (R)-(3-Aminopyrrolidin-1-yl)(7-bromo-5-chloro-1H-indol-2-yl)methanone] | 4.00 to 5.00 |
| N[C@@H]1CCN(C(=O)c2cc3cc(Br)ccc3[nH]2)C1 [Example 48, (R)-(3-Aminopyrrolidin-1-yl)(5-bromo-1H-indol-2-yl)methanone] | 5.00 to 6.00 |
| N[C@@H]1CCN(C(=O)c2cc3cc(F)ccc3[nH]2)C1 [Example 49, (R)-(3-Aminopyrrolidin-1-yl)(5-fluoro-1H-indol-2-yl)methanone] | 4.00 to 5.00 |
| N[C@@H]1CCN(C(=O)c2cc3cc(F)c(F)cc3[nH]2)C1 [Example 50, (R)-(3-Aminopyrrolidin-1-yl)(5,6-difluoro-1H-indol-2-yl)methanone] | 4.00 to 5.00 |
| CN(C(=O)c1cc2cc(Cl)c(F)c(F)c2[nH]1)[C@H]1CCNC1 [Example 51, (S)-5-chloro-6,7-difluoro-N-methyl-N-(pyrrolidin-3-yl)-1H-indole-2-carboxamide] | 4.00 to 5.00 |
| CN(C(=O)c1cc2cc(Cl)c(F)c(F)c2[nH]1)C1CNC1 [Example 52, N-(azetidin-3-yl)-5-chloro-6,7-difluoro-N-methyl-1H-indole-2-carboxamide] | 4.00 to 5.00 |
| CC1(NC(=O)c2cc3cc(Cl)c(F)c(F)c3[nH]2)CNC1 [Example 53, 5-chloro-6,7-difluoro-N-(3-methylazetidin-3-yl)-1H-indole-2-carboxamide] | 4.00 to 5.00 |
| C[C@@H]1NC[C@@H]1NC(=O)c1cc2cc(Cl)c(F)c(F)c2[nH]1 [Example 54, 5-chloro-6,7-difluoro-N-((2S,3S)-2-methylazetidin-3-yl)-1H-indole-2-carboxamide] | 5.00 to 6.00 |
| C[C@H]1NC[C@H]1NC(=O)c1cc2cc(Cl)c(F)c(F)c2[nH]1 [Example 55, 5-chloro-6,7-difluoro-N-((2R,3R)-2-methylazetidin-3-yl)-1H-indole-2-carboxamide] | 5.00 to 6.00 |
| O=C(c1cc2cc(Cl)c(F)c(F)c2[nH]1)N1C[C@H]2CNC[C@H]21 [Example 56, (1R,5S)-3,6-diazabicyclo[3.2.0]heptan-6-yl(5-chloro-6,7-difluoro-1H-indol-2-yl)methanone] | 5.00 to 6.00 |
| O=C(c1cc2cc(Cl)c(F)c(F)c2[nH]1)N1CC[C@H]2CNC[C@H]21 [Example 57, (5-chloro-6,7-difluoro-1H-indol-2-yl)((3aS,6aS)-hexahydropyrrolo[3,4-b]pyrrol-1(2H)-yl)methanone] | 5.00 to 6.00 |
| O=C(c1cc2cc(Cl)c(F)c(F)c2[nH]1)N1CC[C@@H]2CNC[C@@H]21 [Example 58, (5-chloro-6,7-difluoro-1H-indol-2-yl)((3aR,6aR)-hexahydropyrrolo[3,4-b]pyrrol-1(2H)-yl)methanone] | 4.00 to 5.00 |
| O=C(c1cc2cc(Cl)c(F)c(F)c2[nH]1)N1C[C@H]2CNC[C@H]2C1 [Example 59, (5-chloro-6,7-difluoro-1H-indol-2-yl)((3aR,6aS)-hexahydropyrrolo[3,4-c]pyrrol-2(1H)-yl)methanone] | 4.00 to 5.00 |
| O=C(c1cc2cc(Cl)c(F)c(F)c2[nH]1)N1CC2(CNC2)C1 [Example 60, (5-chloro-6,7-difluoro-1H-indol-2-yl)(2,6-diazaspiro[3.3]heptan-2-yl)methanone] | 4.00 to 5.00 |
| O=C(c1cc2cc(Cl)c(F)c(F)c2[nH]1)N1CC2(CCNC2)C1 [Example 61, (5-chloro-6,7-difluoro-1H-indol-2-yl)(2,6-diazaspiro[3.4]octan-2-yl)methanone] | 4.00 to 5.00 |
| O=C(NC[C@H]1CCNC1)c1cc2cc(Cl)c(F)c(F)c2[nH]1 [Example 62, (S)-5-chloro-6,7-difluoro-N-(pyrrolidin-3-ylmethyl)-1H-indole-2-carboxamide] | 4.00 to 5.00 |
| O=C(NC[C@@H]1CCNC1)c1cc2cc(Cl)c(F)c(F)c2[nH]1 [Example 63, (R)-5-chloro-6,7-difluoro-N-(pyrrolidin-3-ylmethyl)-1H-indole-2-carboxamide] | 4.00 to 5.00 |
| C[C@@H](CN)N(C)C(=O)c1cc2cc(Cl)c(F)c(F)c2[nH]1 [Example 64, (S)-N-(1-aminopropan-2-yl)-5-chloro-6,7-difluoro-N-methyl-1H-indole-2-carboxamide] | 5.00 to 6.00 |
| N[C@H]1CN(C(=O)c2cc3cc(Br)c(F)c(F)c3[nH]2)C[C@@H]1O [Example 65, ((3S,4S)-3-amino-4-hydroxypyrrolidin-1-yl)(5-bromo-6,7-difluoro-1H-indol-2-yl)methanone] | 5.00 to 6.00 |
| N[C@H]1CN(C(=O)c2cc3cc(I)c(F)c(F)c3[nH]2)C[C@@H]1O [Example 66, ((3S,4S)-3-amino-4-hydroxypyrrolidin-1-yl)(6,7-difluoro-5-iodo-1H-indol-2-yl)methanone] | 5.00 to 6.00 |
| N[C@H]1CN(C(=O)c2cc3cc(Br)c(F)c(F)c3[nH]2)C[C@H]1O [Example 67, ((3S,4R)-3-amino-4-hydroxypyrrolidin-1-yl)(5-bromo-6,7-difluoro-1H-indol-2-yl)methanone] | 5.00 to 6.00 |
